Tests used:
[1] = biological target: T1, Ephrin type-B receptor 2 (Homo sapiens) (UniProt P29323); assay: Inhibition of EPHB2 (unknown origin) at 0.5 uM relative to control
T1 sequence (whole entry): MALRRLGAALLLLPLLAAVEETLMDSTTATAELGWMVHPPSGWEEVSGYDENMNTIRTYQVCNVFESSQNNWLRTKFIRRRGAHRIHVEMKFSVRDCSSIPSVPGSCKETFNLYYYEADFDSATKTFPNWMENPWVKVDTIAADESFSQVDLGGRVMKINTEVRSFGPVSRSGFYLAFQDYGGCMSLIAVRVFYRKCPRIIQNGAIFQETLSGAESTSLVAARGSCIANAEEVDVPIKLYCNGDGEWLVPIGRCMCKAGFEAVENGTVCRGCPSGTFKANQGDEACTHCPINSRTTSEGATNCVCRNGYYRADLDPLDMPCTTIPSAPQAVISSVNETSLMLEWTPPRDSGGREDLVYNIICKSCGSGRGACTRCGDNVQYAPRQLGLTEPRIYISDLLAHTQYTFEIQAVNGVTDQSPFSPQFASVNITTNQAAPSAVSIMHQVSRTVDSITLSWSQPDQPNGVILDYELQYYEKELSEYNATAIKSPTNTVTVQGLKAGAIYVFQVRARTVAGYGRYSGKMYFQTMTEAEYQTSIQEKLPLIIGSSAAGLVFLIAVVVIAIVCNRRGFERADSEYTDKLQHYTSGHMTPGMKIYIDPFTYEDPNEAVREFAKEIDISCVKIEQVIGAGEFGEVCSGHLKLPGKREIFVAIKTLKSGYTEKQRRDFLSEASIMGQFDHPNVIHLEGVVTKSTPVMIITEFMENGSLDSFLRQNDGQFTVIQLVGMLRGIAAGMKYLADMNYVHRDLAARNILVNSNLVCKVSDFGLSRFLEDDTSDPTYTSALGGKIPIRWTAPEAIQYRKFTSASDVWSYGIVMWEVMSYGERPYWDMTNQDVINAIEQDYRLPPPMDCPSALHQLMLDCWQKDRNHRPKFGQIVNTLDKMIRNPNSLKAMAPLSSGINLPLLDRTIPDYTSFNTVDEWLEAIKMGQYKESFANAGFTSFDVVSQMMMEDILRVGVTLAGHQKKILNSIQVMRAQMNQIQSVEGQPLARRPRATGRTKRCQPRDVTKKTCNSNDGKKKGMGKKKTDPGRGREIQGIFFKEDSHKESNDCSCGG

[2] = biological target: NT-3 growth factor receptor (Homo sapiens) (UniProt Q16288); assay: Inhibition of TRKC (unknown origin) at 0.5 uM relative to control
[3] = biological target: Tyrosine-protein kinase Lck (Homo sapiens) (UniProt P06239); assay: Inhibition of LCK (unknown origin) at 0.5 uM relative to control
[4] = biological target: T2, Ephrin type-B receptor 4 (Homo sapiens) (UniProt P54760); assay: Inhibition of EPHB4 (unknown origin) at 0.5 uM relative to control
T2 sequence (whole entry): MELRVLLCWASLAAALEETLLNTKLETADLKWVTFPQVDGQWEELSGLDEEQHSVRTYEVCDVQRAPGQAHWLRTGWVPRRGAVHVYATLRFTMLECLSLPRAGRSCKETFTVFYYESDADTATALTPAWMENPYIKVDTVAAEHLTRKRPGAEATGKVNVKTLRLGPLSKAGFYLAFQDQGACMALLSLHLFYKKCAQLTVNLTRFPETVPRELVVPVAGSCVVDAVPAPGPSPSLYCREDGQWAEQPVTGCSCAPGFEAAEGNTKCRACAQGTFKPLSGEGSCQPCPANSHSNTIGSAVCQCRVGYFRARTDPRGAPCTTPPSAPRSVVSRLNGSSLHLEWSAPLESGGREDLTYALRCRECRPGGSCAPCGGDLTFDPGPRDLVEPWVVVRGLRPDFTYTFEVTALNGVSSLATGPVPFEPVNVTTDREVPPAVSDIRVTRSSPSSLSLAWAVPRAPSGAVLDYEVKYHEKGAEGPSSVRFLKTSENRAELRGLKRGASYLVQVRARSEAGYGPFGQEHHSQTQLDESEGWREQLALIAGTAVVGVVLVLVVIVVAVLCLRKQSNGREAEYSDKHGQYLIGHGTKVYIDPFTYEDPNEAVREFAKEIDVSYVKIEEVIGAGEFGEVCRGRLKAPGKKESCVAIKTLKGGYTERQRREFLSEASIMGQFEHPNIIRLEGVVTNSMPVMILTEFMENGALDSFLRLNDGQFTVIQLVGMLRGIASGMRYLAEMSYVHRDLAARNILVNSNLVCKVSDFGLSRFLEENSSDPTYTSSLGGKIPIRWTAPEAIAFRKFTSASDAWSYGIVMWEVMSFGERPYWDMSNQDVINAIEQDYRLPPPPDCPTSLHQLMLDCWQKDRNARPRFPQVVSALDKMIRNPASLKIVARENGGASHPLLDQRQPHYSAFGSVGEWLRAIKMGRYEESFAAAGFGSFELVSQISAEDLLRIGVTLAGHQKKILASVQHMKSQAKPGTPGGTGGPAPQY

[5] = biological target: T3, Muscle, skeletal receptor tyrosine-protein kinase (Homo sapiens) (UniProt O15146); assay: Inhibition of MUSK (unknown origin) at 0.5 uM relative to control
T3 sequence (whole entry): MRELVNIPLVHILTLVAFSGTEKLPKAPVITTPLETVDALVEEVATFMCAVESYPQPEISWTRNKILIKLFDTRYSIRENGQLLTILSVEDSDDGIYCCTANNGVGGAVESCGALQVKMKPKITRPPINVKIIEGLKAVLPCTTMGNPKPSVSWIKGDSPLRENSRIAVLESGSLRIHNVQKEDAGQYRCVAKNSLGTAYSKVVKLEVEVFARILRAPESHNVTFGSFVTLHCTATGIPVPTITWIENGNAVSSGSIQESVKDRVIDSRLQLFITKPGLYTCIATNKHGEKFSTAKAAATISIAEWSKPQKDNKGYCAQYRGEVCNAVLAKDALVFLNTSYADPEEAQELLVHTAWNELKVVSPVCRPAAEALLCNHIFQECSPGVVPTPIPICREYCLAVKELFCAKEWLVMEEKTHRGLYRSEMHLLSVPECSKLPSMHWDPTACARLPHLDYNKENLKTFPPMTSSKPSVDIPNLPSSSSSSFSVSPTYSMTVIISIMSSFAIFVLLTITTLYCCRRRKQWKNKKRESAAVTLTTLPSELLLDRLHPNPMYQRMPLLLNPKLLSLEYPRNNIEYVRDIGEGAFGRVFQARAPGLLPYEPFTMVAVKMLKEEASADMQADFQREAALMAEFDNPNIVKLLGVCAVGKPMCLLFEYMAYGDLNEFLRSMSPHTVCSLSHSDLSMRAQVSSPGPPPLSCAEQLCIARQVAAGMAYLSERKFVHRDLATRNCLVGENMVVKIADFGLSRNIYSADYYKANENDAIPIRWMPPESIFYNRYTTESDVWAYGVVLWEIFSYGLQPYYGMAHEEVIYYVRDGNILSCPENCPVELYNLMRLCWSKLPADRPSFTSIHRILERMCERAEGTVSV

Sequence of NT-3 growth factor receptor (Homo sapiens) (Q16288 32-839 limits assumed): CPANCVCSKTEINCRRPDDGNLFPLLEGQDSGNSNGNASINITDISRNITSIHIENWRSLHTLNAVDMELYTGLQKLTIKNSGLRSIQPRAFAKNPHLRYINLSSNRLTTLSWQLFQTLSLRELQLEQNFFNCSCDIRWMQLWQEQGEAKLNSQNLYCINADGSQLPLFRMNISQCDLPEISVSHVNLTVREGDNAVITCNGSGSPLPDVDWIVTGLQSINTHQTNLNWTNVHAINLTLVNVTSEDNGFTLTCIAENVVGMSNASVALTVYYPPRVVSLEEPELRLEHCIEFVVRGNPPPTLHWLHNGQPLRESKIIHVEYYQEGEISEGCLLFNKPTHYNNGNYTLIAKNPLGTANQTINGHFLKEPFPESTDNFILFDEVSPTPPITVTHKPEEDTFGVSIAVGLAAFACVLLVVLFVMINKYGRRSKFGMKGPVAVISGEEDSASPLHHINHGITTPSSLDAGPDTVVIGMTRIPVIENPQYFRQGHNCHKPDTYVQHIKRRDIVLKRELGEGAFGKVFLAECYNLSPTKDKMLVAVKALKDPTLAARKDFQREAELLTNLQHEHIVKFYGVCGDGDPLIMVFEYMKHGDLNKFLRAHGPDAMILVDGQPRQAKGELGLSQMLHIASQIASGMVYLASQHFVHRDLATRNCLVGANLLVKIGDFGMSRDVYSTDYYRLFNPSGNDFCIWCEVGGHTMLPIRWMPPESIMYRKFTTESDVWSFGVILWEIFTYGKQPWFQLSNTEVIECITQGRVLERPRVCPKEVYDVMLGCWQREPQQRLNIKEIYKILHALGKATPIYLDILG
Sequence of Tyrosine-protein kinase Lck (Homo sapiens) (P06239 2-509 limits assumed): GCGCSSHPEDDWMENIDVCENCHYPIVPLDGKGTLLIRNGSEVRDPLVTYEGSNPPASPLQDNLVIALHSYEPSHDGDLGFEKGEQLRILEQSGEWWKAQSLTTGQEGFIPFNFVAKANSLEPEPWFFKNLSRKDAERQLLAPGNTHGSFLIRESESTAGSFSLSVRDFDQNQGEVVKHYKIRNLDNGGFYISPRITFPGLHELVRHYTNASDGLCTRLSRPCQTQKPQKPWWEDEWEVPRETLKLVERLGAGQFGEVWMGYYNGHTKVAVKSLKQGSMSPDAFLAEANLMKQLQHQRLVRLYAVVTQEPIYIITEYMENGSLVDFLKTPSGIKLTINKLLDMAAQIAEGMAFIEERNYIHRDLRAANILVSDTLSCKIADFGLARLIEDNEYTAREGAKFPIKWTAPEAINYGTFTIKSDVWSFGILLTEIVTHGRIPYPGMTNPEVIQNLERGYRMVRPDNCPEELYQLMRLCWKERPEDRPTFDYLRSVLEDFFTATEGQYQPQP

Compound | inhibition [1] [%] | inhibition [2] [%] | inhibition [3] [%] | inhibition [4] [%] | inhibition [5] [%]
CNC(=O)c1cc(Oc2ccc(NC(=O)c3nc(SC)oc3-c3ccc(F)cc3)cc2F)ccn1 | 39 | 46 | 71 | 43 | 
CNC(=O)c1cc(Oc2ccc(NC(=O)c3n[nH]nc3-c3ccc(F)cc3)cc2)ccn1 | 35 | 55 |  |  | 25
CNC(=O)c1cc(Oc2ccc(NC(=O)c3nc(SC)[nH]c3-c3ccc(F)cc3)cc2)ccn1 | 93 | 90 | 84 | 82 | 97
CNC(=O)c1cc(Oc2ccc(NC(=O)c3nc(SC)n(CCN(C)C)c3-c3ccc(F)cc3)cc2)ccn1 |  | 57 | 28 | 25 | 29
CNC(=O)c1cc(Oc2ccc(NC(=O)c3nc(SC)oc3-c3ccc(F)cc3)cc2)ccn1 | 48 | 51 | 77 | 42 | 
CNC(=O)c1cc(Oc2ccc(NC(=O)c3nc(C(F)(F)F)sc3-c3ccc(F)cc3)cc2)ccn1 |  |  | 58 | 24 | 34
CNC(=O)c1cc(Oc2ccc(NC(=O)c3nc(S(C)(=O)=O)sc3-c3ccc(F)cc3)cc2)ccn1 | 27 | 25 |  | 24 | 70
CNC(=O)c1cc(Oc2ccc(NC(=O)c3nc(NC)sc3-c3ccc(F)cc3)cc2)ccn1 | 51 | 76 | 49 |  | 51

Reference: ChEMBL document CHEMBL4806968, “Hipk inhibitors and methods of use thereof” (2020)
